Source: ChEMBL document CHEMBL1201862, “PubChem BioAssay data set” (2004)
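48-hour exposure; five concentrations; linearly interpolated endpoints. Abbreviation: GI50, concentration required for 50% inhibition of growth.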 Calls of active or inactive are those of the source. No stated cut-off is given here; in the data, active = GI50 up to about 1.1 µM and inactive = higher.

Legend:
Assay in all cases: NCI-60 cell line screen, 48 h
A549 = tested on: A549
ACHN = tested on: ACHN
HOP-62 = tested on: HOP-62
HOP-92 = tested on: HOP-92
Hs-578T = tested on: Hs-578T
IGROV-1 = tested on: IGROV-1
K562 = tested on: K562
KM12 = tested on: KM12
MCF7 = tested on: MCF7
MDA-N = tested on: MDA-N
MOLT-4 = tested on: MOLT-4
NCI-H460 = tested on: NCI-H460
OVCAR-4 = tested on: OVCAR-4
OVCAR-5 = tested on: OVCAR-5
RPMI-8226 = tested on: RPMI-8226
SF-268 = tested on: SF-268
SF-539 = tested on: SF-539
SK-MEL-5 = tested on: SK-MEL-5
SNB-75 = tested on: SNB-75
TK-10 = tested on: TK-10

Row | SMILES | GI50 (A549) | GI50 (ACHN) | GI50 (HOP-62) | GI50 (HOP-92) | GI50 (Hs-578T) | GI50 (IGROV-1) | GI50 (K562) | GI50 (KM12) | GI50 (MCF7) | GI50 (MDA-N) | GI50 (MOLT-4) | GI50 (NCI-H460) | GI50 (OVCAR-4) | GI50 (OVCAR-5) | GI50 (RPMI-8226) | GI50 (SF-268) | GI50 (SF-539) | GI50 (SK-MEL-5) | GI50 (SNB-75) | GI50 (TK-10)
1 | Cc1cc2c(cc1C)OC(=O)CC2 | > 100 µM (inactive) | > 100 µM (inactive) | > 100 µM (inactive) | > 100 µM (inactive) | > 100 µM (inactive) | > 100 µM (inactive) | > 100 µM (inactive) | > 100 µM (inactive) | > 100 µM (inactive) | > 100 µM (inactive) | > 100 µM (inactive) | > 100 µM (inactive) | > 100 µM (inactive) | > 100 µM (inactive) | > 100 µM (inactive) | > 100 µM (inactive) | > 100 µM (inactive) | > 100 µM (inactive) | > 100 µM (inactive) | > 100 µM (inactive)
2 | O=C(O)COc1cc(-c2ccccc2)nc2ccc(F)cc12 | > 100 µM (inactive) | > 100 µM (inactive) | > 100 µM (inactive) | > 100 µM (inactive) | > 100 µM (inactive) | > 100 µM (inactive) | > 100 µM (inactive) | > 100 µM (inactive) | > 100 µM (inactive) | > 100 µM (inactive) | > 100 µM (inactive) | > 100 µM (inactive) | > 100 µM (inactive) | > 100 µM (inactive) | > 100 µM (inactive) | > 100 µM (inactive) | > 100 µM (inactive) | > 100 µM (inactive) | > 100 µM (inactive) | 0.0261 µM (active)
3 | O=C1C=CC(=O)c2c1cc([N+](=O)[O-])c1ccoc21 | 20.9 µM (inactive) | 1.82 µM (inactive) | 16.5 µM (inactive) | 1.96 µM (inactive) | 28.1 µM (inactive) | 17.7 µM (inactive) | 2.75 µM (inactive) | 15.9 µM (inactive) | 14.3 µM (inactive) | 17.1 µM (inactive) | 0.942 µM (active) | 18.2 µM (inactive) | 18.9 µM (inactive) | 18.5 µM (inactive) | 4.37 µM (inactive) | 26.2 µM (inactive) | 27.2 µM (inactive) | 16.4 µM (inactive) | 26.1 µM (inactive) | 2.18 µM (inactive)
4 | CCOP(=O)(OCC)/C(F)=C/c1ccccc1 | > 100 µM (inactive) | > 100 µM (inactive) | > 100 µM (inactive) | > 100 µM (inactive) | > 100 µM (inactive) | > 100 µM (inactive) | > 100 µM (inactive) | > 100 µM (inactive) | > 100 µM (inactive) | > 100 µM (inactive) | > 100 µM (inactive) | > 100 µM (inactive) | > 100 µM (inactive) | > 100 µM (inactive) | > 100 µM (inactive) | > 100 µM (inactive) | > 100 µM (inactive) | > 100 µM (inactive) | > 100 µM (inactive) | > 100 µM (inactive)
5 | O=C(SC1=NCCN1)c1cccc2ccccc12 | > 100 µM (inactive) | 66.8 µM (inactive) | 55 µM (inactive) | 42.1 µM (inactive) | 81.3 µM (inactive) | 63.7 µM (inactive) | 25.4 µM (inactive) | 37 µM (inactive) | 50.9 µM (inactive) | 76 µM (inactive) | 16.9 µM (inactive) | 62.5 µM (inactive) | 59.8 µM (inactive) | > 100 µM (inactive) | 27.8 µM (inactive) | > 100 µM (inactive) | > 100 µM (inactive) | 66.5 µM (inactive) | 22.8 µM (inactive) | > 100 µM (inactive)
6 | O=C1CCCNn2c(nc3ncccc3c2=O)N1 | > 100 µM (inactive) | > 100 µM (inactive) | > 100 µM (inactive) | > 100 µM (inactive) | > 100 µM (inactive) | > 100 µM (inactive) | > 100 µM (inactive) | 78.7 µM (inactive) | > 100 µM (inactive) | > 100 µM (inactive) | > 100 µM (inactive) | > 100 µM (inactive) | > 100 µM (inactive) | > 100 µM (inactive) | > 100 µM (inactive) | > 100 µM (inactive) | > 100 µM (inactive) | > 100 µM (inactive) | 30.2 µM (inactive) | > 100 µM (inactive)
7 | O=C1/C(=C/c2ccc3c(c2)OCO3)CCC1CN1CCOCC1 (stereo not given) | 20.9 µM (inactive) | 10.7 µM (inactive) | 16.3 µM (inactive) | 9.89 µM (inactive) | 3.84 µM (inactive) | 16.1 µM (inactive) | 2.03 µM (inactive) | 4.65 µM (inactive) | 2.1 µM (inactive) | 2.04 µM (inactive) | 1.95 µM (inactive) | 17.4 µM (inactive) | 6.73 µM (inactive) | 14 µM (inactive) | 0.436 µM (active) | 10.5 µM (inactive) | 13 µM (inactive) | 9.16 µM (inactive) | 14.6 µM (inactive) | 12.4 µM (inactive)
8 | CCOC(=O)N1CCN(c2ccc3c(C)cc(C)nc3n2)CC1 | > 100 µM (inactive) | > 100 µM (inactive) | > 100 µM (inactive) | > 100 µM (inactive) | > 100 µM (inactive) | > 100 µM (inactive) | > 100 µM (inactive) | > 100 µM (inactive) | > 100 µM (inactive) | > 100 µM (inactive) | > 100 µM (inactive) | > 100 µM (inactive) | > 100 µM (inactive) | > 100 µM (inactive) | > 100 µM (inactive) | > 100 µM (inactive) | > 100 µM (inactive) | > 100 µM (inactive) | > 100 µM (inactive) | > 100 µM (inactive)
9 | CCN(CC)CCn1c(=O)c2cccnc2n2c3c(=O)n(C)c(=O)n(C)c3nc12 | 59.4 µM (inactive) | 34.8 µM (inactive) | > 100 µM (inactive) | > 100 µM (inactive) | > 100 µM (inactive) | > 100 µM (inactive) | > 100 µM (inactive) | > 100 µM (inactive) | 45.1 µM (inactive) | > 100 µM (inactive) | 34.7 µM (inactive) | 36.6 µM (inactive) | > 100 µM (inactive) | > 100 µM (inactive) | > 100 µM (inactive) | > 100 µM (inactive) | 85.1 µM (inactive) | 47.1 µM (inactive) | > 100 µM (inactive) | 23.2 µM (inactive)
10 | Cc1nc(-c2ccc(Cl)cc2)cn2c1nc1ccccc12 | > 100 µM (inactive) | > 100 µM (inactive) | > 100 µM (inactive) | > 33.1 µM (inactive) | > 100 µM (inactive) | 11.1 µM (inactive) | > 72.3 µM (inactive) | > 82.6 µM (inactive) | 0.647 µM (active) | > 100 µM (inactive) | 26.3 µM (inactive) | > 100 µM (inactive) | > 100 µM (inactive) | > 31 µM (inactive) | > 100 µM (inactive) | > 100 µM (inactive) | > 61.4 µM (inactive) | 5.14 µM (inactive) | > 100 µM (inactive) | > 100 µM (inactive)
11 | O=C(/C=C/c1ccc(O)c(-c2cc(C(=O)/C=C/c3ccc(O)cc3)c(O)cc2O)c1)c1ccc(O)cc1O [RHUSCHALCONE VI] | > 50 µM (inactive) | > 50 µM (inactive) | 30.9 µM (inactive) | 24.6 µM (inactive) | 30 µM (inactive) | 24.5 µM (inactive) | 13.6 µM (inactive) | 13.3 µM (inactive) | 20.2 µM (inactive) | 18.3 µM (inactive) | 16.1 µM (inactive) | > 50 µM (inactive) | 17.9 µM (inactive) | > 50 µM (inactive) | 18.6 µM (inactive) | 17.5 µM (inactive) | 11.7 µM (inactive) | 27.8 µM (inactive) | 13.3 µM (inactive) | > 50 µM (inactive)
12 | CC(C)=CCC[C@](C)(O[C@@H]1O[C@H](CO)[C@@H](O)[C@H](O)[C@H]1O)[C@H]1CC[C@]2(C)[C@@H]1[C@H](O)C[C@@H]1[C@@]3(C)CC[C@@H](O)C(C)(C)[C@@H]3[C@@H](O[C@@H]3O[C@H](CO)[C@@H](O)[C@H](O)[C@H]3O)C[C@]12C.C[C@@H]1O[C@@H](O[C@H]2[C@H](O[C@H]3C[C@]4(C)[C@H](C[C@H](O)[C@@H]5[C@@H]([C@@]6(C)CC[C@H](C(C)(C)O)O6)CC[C@]54C)[C@@]4(C)CC[C@H](O)C(C)(C)[C@H]34)O[C@H](CO)[C@@H](O)[C@@H]2O)[C@H](O)[C@H](O)[C@H]1O | > 100 µM (inactive) | > 100 µM (inactive) | > 100 µM (inactive) | > 100 µM (inactive) | > 100 µM (inactive) | > 100 µM (inactive) | > 100 µM (inactive) | > 100 µM (inactive) | > 100 µM (inactive) | > 100 µM (inactive) | 84.9 µM (inactive) | > 100 µM (inactive) | > 100 µM (inactive) | > 100 µM (inactive) | > 100 µM (inactive) | > 100 µM (inactive) | > 100 µM (inactive) | > 100 µM (inactive) | > 100 µM (inactive) | > 100 µM (inactive)
13 | C[N+](C)(C)CC(=O)N/N=C(\C(=O)NC1=C(Cl)C(=O)c2ccccc2C1=O)C(C#N)c1nc(-c2ccc([N+](=O)[O-])cc2)cs1 (stereo not given) | 4.54 µM (inactive) | 10.6 µM (inactive) | 12.7 µM (inactive) | 13 µM (inactive) | 7.85 µM (inactive) | 6.71 µM (inactive) | 10.8 µM (inactive) | 14.6 µM (inactive) | 5.41 µM (inactive) | 1.74 µM (inactive) | 13.4 µM (inactive) | 4.31 µM (inactive) | 10.1 µM (inactive) | 13.1 µM (inactive) | 6.53 µM (inactive) | 12.3 µM (inactive) | 8.38 µM (inactive) | 1.13 µM (inactive) | 7.23 µM (inactive) | 31 µM (inactive)
